Experiments:
[1] = biological target: T1, VEGF (Homo sapiens, UniProt P15692); assay: Release of VEGF from functionalized microspheres; conditions: for bound VEGF released in 24 hours: microspheres incubated in a medium containing 10% FBS; for VEGF release relative to monomer microspheres (in words) / duration of sustained VEGF release: microspheres pre-incubated in 40 ng/ml VEGF solution (Fig. 3a)
T1 sequence (P15692 1-191 isoform P15692-4): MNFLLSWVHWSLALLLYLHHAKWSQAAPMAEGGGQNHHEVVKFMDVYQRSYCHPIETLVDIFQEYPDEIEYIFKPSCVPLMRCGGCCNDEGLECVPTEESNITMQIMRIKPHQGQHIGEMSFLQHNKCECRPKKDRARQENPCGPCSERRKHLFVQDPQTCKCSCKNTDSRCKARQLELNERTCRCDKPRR

[2] = biological target: T1, VEGF; format: binding; conditions: Fig. 1b; varying concentrations of VEGF; microspheres containing lysine modified dimers
[3] = test system: uterine artery endothelial cells (UAECs); conditions: 10 ng/ml VEGF-165; compared with VEGF-free condition

| bound VEGF released in 24 hours [1] | duration of sustained VEGF release [1] | Substance | VEGF release relative to monomer microspheres (in words) [1] | VEGF binding efficiency over a range of VEGF concentrations (in words) [2] | percent of responding UAECs (in words) [3] |
| --- | --- | --- | --- | --- | --- |
| 72 ± 2% | over 30 days | (EFdAdYdLdIDFNWEYPAS)2KKKC [dimerb] | released significantly more VEGF and over a longer period of time relative to microspheres containing the monomer version | consistently showed a higher VEGF binding efficiency than dimera |  |
| 48 ± 5% | over 30 days | (EFdAdYdLdIDFNWEYPASK)2KC [dimera] | released significantly more VEGF and over a longer period of time relative to microspheres containing the monomer version |  | reduced to the same level as the VEGF-free condition |

Source: publication PMC3925890 (Advanced healthcare materials, 2012)
